Here are results for 21 compounds from patent EP0241395A2, “Sweeteners derived from n-phenylguanidinoacetic and n-phenylethananamidinacetic acids, and compositions containing such sweeteners” (UNIVERSITE CLAUDE BERNARD - LYON 1, priority 1986, dated 1987).

The assay relates to groupe de huit goûteurs expérimentés. Kind of assay: Sweetening power judged by a panel of eight experienced tasters against a sucrose reference solution. The class given is in vivo. Particulars: weight basis; for Pouvoir édulcorant: Table II, relative to a 2 % sucrose solution; for pouvoir édulcorant, sur une base pondérale: approximate. An excerpt: Le pouvoir édulcorant des composés préparés dans les exemples suivants a été évalué par un groupe de huit goûteurs expérimentés. Pour cela, les composés, en solution aqueuse à des concentrations variables, sont comparés, sur le plan gustatif, à une solution témoin de saccharose à 2 % et dans certains cas à 5 % et 10 %, c'est-à-dire à des concentrations correspondant à celles utilisées lors d'un usage courant. Le pouvoir sucrant des édulcorants de synthèse varie en effet suivant la concentration de la solution de saccharose utilisée comme référence. Le pouvoir édulcorant du composé testé par rapport au saccharose correspond alors au rapport pondéral qui existe entre le composé et le saccharose à égale intensité édulcorante, c'est-à-dire quand les saveurs sucrées de la solution du composé testé et de la solution témoin de saccharose sont considérées, par une majorité de goûteurs, avoir la même intensité édulcorante.

Where [1] appears, read: by comparison with a 2 % sucrose solution.
The mark [2] stands for this setting: by comparison with a 5 % sucrose solution.
Where [3] appears, read: by comparison with a 10 % sucrose solution.

SMILES strings stand for the structures.

The compound `N#Cc1ccc(N=C(NCC(=O)O)NC2CCCCCCC2)cc1Cl` [Exemple 49, acide N-[N-cyclooctylamino(3-chloro-4-cyanophénylimino)méthyl]-2-aminoéthanoïque] registered a Pouvoir édulcorant of 100000. In addition, the “pouvoir édulcorant, sur une base pondérale” value under setting [1] was ~100 000 fois celui du saccharose.

Compound `COC(=O)c1ccc(N=C(NCC(=O)O)NCC2CCCCC2)cc1` [Exemple 60, acide N-[N-cyclohexylméthylamino(4-méthoxycarbonylphénylimino)méthyl]-2-aminoéthanoïque] came in with a Pouvoir édulcorant of 1300. In addition, under setting [1], the “pouvoir édulcorant, sur une base pondérale” value is ~1 300 fois celui du saccharose. Besides, the “pouvoir édulcorant, sur une base pondérale” value under setting [2] is about 900 fois celui du saccharose. Further, the “pouvoir édulcorant, sur une base pondérale” value under setting [3] is on record as about 500 fois celui du saccharose.

Compound `C[C@H](NC(=Nc1cc(Cl)cc(Cl)c1)NCC(=O)O)c1ccccc1` [Exemple 26, acide N-[N-(S)-α-méthylbenzylamino (3,5-dichlorophénylimino)méthyl]-2-aminoéthanoïque] showed a Pouvoir édulcorant of 120000. The “pouvoir édulcorant, sur une base pondérale” value under setting [1] is reported as ~120 000 fois celui du saccharose. Under setting [2], the “pouvoir édulcorant, sur une base pondérale” value is recorded as ~90 000 fois celui du saccharose. For the same compound, the “pouvoir édulcorant, sur une base pondérale” value under setting [3] is given as ~50 000 fois celui du saccharose.

`C[C@H](NC(=Nc1cccc([N+](=O)[O-])c1)NCC(=O)O)c1ccccc1` [Exemple 8, acide N-[N-(S)-α-méthylbenzylamino (3-nitrophénylimino)méthyl] -2-aminoéthanoique] had a Pouvoir édulcorant of 6000. Under setting [1], the “pouvoir édulcorant, sur une base pondérale” value is listed as ~6 000 fois celui du saccharose.

In turn, `CSc1ccc(N=C(NCC(=O)O)N[C@@H](C)c2ccccc2)cc1` [Exemple 21, acide N-[N-(S)-a-méthylbenzylamino (4-méthylmercaptophénylimino)méthyl)-2-aminoéthanoïque] yielded a Pouvoir édulcorant of 1200. In addition, the pouvoir édulcorant, sur une base pondérale under setting [1] is about 1200 times sucrose.

`O=C(O)CNC(=Nc1cc(Cl)cc(Cl)c1)NCC1CCCCC1` [Exemple 57, acide N-[N-cyclohexylméthylamino (3,5-dichlorophénylimino)méthyl]-2-aminoéthanoïque] registered a Pouvoir édulcorant of 35000. The “pouvoir édulcorant, sur une base pondérale” value under setting [1] was ~35 000 fois celui du saccharose.

Consider `CCc1cccc(N=C(NCC(=O)O)N[C@@H](C)c2ccccc2)c1` [Exemple 5, acide N-[N-(S) -α-méthylbenzylamino (3-éthylphénylimino)méthyl]-2-aminoéthanoïque], for which the “Pouvoir édulcorant” value is reported as 4 500. In addition, the “pouvoir édulcorant, sur une base pondérale” value under setting [1] is listed as ~4 500 fois celui du saccharose.

For `Cc1cccc(N=C(NCC(=O)O)N[C@@H](C)c2ccccc2)c1` [Exemple 4, acide N-[N (S)-α-méthylbenzylamino (3-méthylphénylimino)méthyl]-2-aminoéthanoïque], the Pouvoir édulcorant worked out at 12000. Under setting [1], the “pouvoir édulcorant, sur une base pondérale” value is recorded as ~12 000 fois celui du saccharose.

In the case of `COc1ccc(N=C(NCC(=O)O)N[C@@H](C)c2ccccc2)cc1` [Exemple 19, acide N-[N-(S)-α-méthylbenzylamino (4-méthoxyphénylimino)méthyl]-2-aminoéthanoïque], the “Pouvoir édulcorant” value is given as 2 100. For the same compound, the pouvoir édulcorant, sur une base pondérale under setting [1] was about 2100 times sucrose.

For `O=C(O)CNC(=Nc1ccccc1)Nc1ccccc1` [Exemple 40, acide N-[N-phénylamino(phénylimino)méthyl]-2-aminoéthanoique], the “Pouvoir édulcorant” value came to 500. Besides, under setting [1], the “pouvoir édulcorant, sur une base pondérale” value is recorded as about 500 fois celui du saccharose.

With `COc1cccc(N=C(NCC(=O)O)N[C@@H](C)c2ccccc2)c1` [Exemple 9, acide N-[N-(S)-ot-méthylbenzylamino (3-méthoxyphénylimino)méthyl]-2-aminoéthanoïque], the “Pouvoir édulcorant” value was 4 500. Moreover, the “pouvoir édulcorant, sur une base pondérale” value under setting [1] is listed as ~4 500 fois celui du saccharose.

The compound `N#Cc1ccc(N=C(NCC(=O)O)Nc2ccc3c(c2)OCO3)cc1` [Exemple 75, acide N-[N-(3,4-méthylènedioxyphényl)amino(4-cyanophénylimino)méthyl]-2-aminoéthanoïque] displayed a Pouvoir édulcorant of 5000. Besides, the “pouvoir édulcorant, sur une base pondérale” value under setting [1] is ~5 000 fois celui du saccharose.

`CCCCCCN=C(NCC(=O)O)Nc1ccc(C#N)cc1` [Exemple 36, acide N-[N-hexylamino(4-cyanophénylimino)méthyl]-2-aminoéthanoïque] displayed a Pouvoir édulcorant of 6000. Under setting [1], the “pouvoir édulcorant, sur une base pondérale” value is ~6 000 fois celui du saccharose. The “pouvoir édulcorant, sur une base pondérale” value under setting [2] is ~4 300 fois celui du saccharose. The compound also showed a pouvoir édulcorant, sur une base pondérale under setting [3] of about 1400 times sucrose.

Regarding `C[C@H](NC(=Nc1cc(Cl)c(Cl)c(Cl)c1)NCC(=O)O)c1ccccc1` [Exemple 28, acide N-[N-(S)-α-méthylbenzylamino (3,4,5-trichlorophénylimino)méthyl]-2-aminoéthanoïque], the Pouvoir édulcorant worked out at 35000. For the same compound, the “pouvoir édulcorant, sur une base pondérale” value under setting [1] is recorded as ~35 000 fois celui du saccharose.

Regarding `C[C@H](NC(=Nc1ccc(Cl)cc1)NCC(=O)O)c1ccccc1` [Exemple 13, acide N-[N-(S)-α-méthylbenzylamino (4-chlorophénylimino)méthyl]-2-aminoéthanoïque], the Pouvoir édulcorant is 3000. Besides, the “pouvoir édulcorant, sur une base pondérale” value under setting [1] is ~3 000 fois celui du saccharose.

As for `O=C(O)CNC(=Nc1cc(Cl)cc(Cl)c1)NN1CCOCC1` [Exemple 76, acide N-[N-morpholinoamino (3,5-dichlorophénylimino)méthyl]-2-aminoéthanoïque], the “Pouvoir édulcorant” value was 500. Further, the “pouvoir édulcorant, sur une base pondérale” value under setting [1] is recorded as about 500 fois celui du saccharose.

Compound `Cc1cc(NC(=NC2CCCCCCC2)NCC(=O)O)ccc1C#N` [Exemple 48, acide N-[N-cyclooctylamino(4-cyano-3-méthylphénylimino)méthyl]-2-aminoéthanoïque] gave a Pouvoir édulcorant of 80000. Further, the “pouvoir édulcorant, sur une base pondérale” value under setting [1] was ~80 000 fois celui du saccharose.

`N#Cc1cccc(N=C(NCC(=O)O)NCC2CCCCC2)c1` [Exemple 56, acide N-[N-cyclohexylméthylamino (3-cyanophénylimino)méthyl]-2-aminoéthanoïque] came in with a Pouvoir édulcorant of 5000. For the same compound, under setting [1], the “pouvoir édulcorant, sur une base pondérale” value is recorded as ~5 000 fois celui du saccharose.

With `C[C@@H](NC(=Nc1ccc(C#N)cc1)NC1CCCCC1)C(=O)O` [Exemple 85, acide (R)-N-[N-cyclohexylamino (4-cyanophénylimino)méthyl]-2-aminopropanoïque], the “Pouvoir édulcorant” value was 100. Also, the “pouvoir édulcorant, sur une base pondérale” value under setting [1] is on record as about 100 fois celui du saccharose.

Take `C[C@H](NC(=Nc1ccc(C(F)(F)F)cc1)NCC(=O)O)c1ccccc1` [Exemple 11, acide N-[N-(S)-α-méthylbenzylamino (4-trifluorométhylphénylimino)méthyl]-2-aminoéthanoïque]: the “Pouvoir édulcorant” value turned out to be 500. In addition, under setting [1], the “pouvoir édulcorant, sur une base pondérale” value is reported as about 500 fois celui du saccharose.

Take `N#CC(C#N)=C(NCC(=O)O)Nc1cc(Cl)cc(Cl)c1` [Exemple 30, acide N-[2,2-dicyano(3,5-dichlorophénylamino)éthényl]-2-aminoéthanoïque]: the “Pouvoir édulcorant” value was found to be 30.
